# Test results from ChEMBL document CHEMBL1201862, “PubChem BioAssay data set” (2004).
#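 Exposure lasted 48 hours, with cells grown in 96-well plates and compounds tested at five concentrations. The concentration for 50% growth inhibition is given as GI50.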 The source made the active and inactive calls. Cut-off read from the data, not from the text of the source: active = GI50 up to about 1.1 µM and inactive = higher.
# Columns and labels:
# Experiment in all cases: growth of human tumour cells (NCI), 48 h
# 786-0 = test system: 786-0
# A549 = test system: A549
# ACHN = test system: ACHN
# CAKI-1 = test system: CAKI-1
# CCRF-CEM = test system: CCRF-CEM
# COLO 205 = test system: COLO 205
# DLD-1 = test system: DLD-1
# DMS-114 = test system: DMS-114
# DMS-273 = test system: DMS-273
# EKVX = test system: EKVX
# HCC 2998 = test system: HCC 2998
# HCT-116 = test system: HCT-116
# HCT-15 = test system: HCT-15
# HL-60 = test system: HL-60
# HOP-62 = test system: HOP-62
# HOP-92 = test system: HOP-92
# HT-29 = test system: HT-29
# K562 = test system: K562
# KM-20L2 = test system: KM-20L2
# KM12 = test system: KM12
# LOX IMVI = test system: LOX IMVI
# LXFL 529 = test system: LXFL 529
# M14 = test system: M14
# M19-MEL = test system: M19-MEL
# MOLT-4 = test system: MOLT-4
# Malme-3M = test system: Malme-3M
# NCI-H226 = test system: NCI-H226
# NCI-H23 = test system: NCI-H23
# NCI-H460 = test system: NCI-H460
# NCI-H522 = test system: NCI-H522
# OVCAR-3 = test system: OVCAR-3
# OVCAR-4 = test system: OVCAR-4
# OVCAR-5 = test system: OVCAR-5
# OVCAR-8 = test system: OVCAR-8
# RPMI-8226 = test system: RPMI-8226
# RXF 393 = test system: RXF 393
# SF-268 = test system: SF-268
# SF-295 = test system: SF-295
# SF-539 = test system: SF-539
# SK-MEL-28 = test system: SK-MEL-28
# SK-MEL-2 = test system: SK-MEL-2
# SK-MEL-5 = test system: SK-MEL-5
# SK-OV-3 = test system: SK-OV-3
# SN12C = test system: SN12C
# SNB-19 = test system: SNB-19
# SNB-75 = test system: SNB-75
# SNB-78 = test system: SNB-78
# SR = test system: SR
# SW-620 = test system: SW-620
# TK-10 = test system: TK-10
# U-251 = test system: U-251
# UACC-257 = test system: UACC-257
# UACC-62 = test system: UACC-62
# UO-31 = test system: UO-31
# XF498 = test system: XF498
compound,measurement,setting,value
N#Cc1ccc(Nc2cnc3ccc(N)cc3n2)cc1,GI50,786-0,> 100 µM (inactive)
same,GI50,A549,> 100 µM (inactive)
same,GI50,ACHN,> 100 µM (inactive)
same,GI50,CAKI-1,> 100 µM (inactive)
same,GI50,CCRF-CEM,> 100 µM (inactive)
same,GI50,COLO 205,> 100 µM (inactive)
same,GI50,DLD-1,> 100 µM (inactive)
same,GI50,DMS-114,> 100 µM (inactive)
same,GI50,DMS-273,> 100 µM (inactive)
same,GI50,EKVX,> 100 µM (inactive)
same,GI50,HCC 2998,> 100 µM (inactive)
same,GI50,HCT-116,> 100 µM (inactive)
same,GI50,HCT-15,> 100 µM
same,GI50,HL-60,> 100 µM (inactive)
same,GI50,HOP-62,> 100 µM (inactive)
same,GI50,HOP-92,> 100 µM (inactive)
same,GI50,HT-29,> 100 µM (inactive)
same,GI50,K562,> 100 µM (inactive)
same,GI50,KM-20L2,> 100 µM (inactive)
same,GI50,KM12,> 100 µM (inactive)
same,GI50,LOX IMVI,> 100 µM (inactive)
same,GI50,LXFL 529,> 100 µM (inactive)
same,GI50,M14,> 100 µM (inactive)
same,GI50,M19-MEL,> 100 µM (inactive)
same,GI50,MOLT-4,> 100 µM (inactive)
same,GI50,Malme-3M,> 100 µM (inactive)
same,GI50,NCI-H226,> 100 µM (inactive)
same,GI50,NCI-H23,> 100 µM (inactive)
same,GI50,NCI-H460,> 100 µM (inactive)
same,GI50,NCI-H522,> 100 µM (inactive)
same,GI50,OVCAR-3,> 100 µM (inactive)
same,GI50,OVCAR-4,> 100 µM (inactive)
same,GI50,OVCAR-5,> 100 µM (inactive)
same,GI50,OVCAR-8,> 100 µM (inactive)
same,GI50,RPMI-8226,> 100 µM (inactive)
same,GI50,RXF 393,> 100 µM (inactive)
same,GI50,SF-268,> 100 µM (inactive)
same,GI50,SF-295,> 100 µM (inactive)
same,GI50,SF-539,> 100 µM (inactive)
same,GI50,SK-MEL-28,> 100 µM (inactive)
same,GI50,SK-MEL-2,> 100 µM (inactive)
same,GI50,SK-MEL-5,> 100 µM (inactive)
same,GI50,SK-OV-3,> 100 µM (inactive)
same,GI50,SN12C,> 100 µM (inactive)
same,GI50,SNB-19,> 100 µM (inactive)
same,GI50,SNB-75,> 100 µM (inactive)
same,GI50,SNB-78,> 100 µM (inactive)
same,GI50,SR,91.4 µM (inactive)
same,GI50,SW-620,> 100 µM (inactive)
same,GI50,TK-10,> 100 µM (inactive)
same,GI50,U-251,> 100 µM (inactive)
same,GI50,UACC-257,> 100 µM (inactive)
same,GI50,UACC-62,> 100 µM (inactive)
same,GI50,UO-31,> 100 µM (inactive)
same,GI50,XF498,> 100 µM (inactive)
